Source: patent US20210079443A1, “INDICATOR BAC[…] SELECTING AND […] EFFICACY OF THERAPEUTICS AND METHODS FOR USING SAME” (priority 2018, published 2021)

Key:
Test in all cases: Phage-Mediated Detection of Staphylococcus aureus
Assay type in all cases: cell-based
[1] = system: Staphylococcus aureus strain AR0461 (MRSA, CDC Panel)
Method: (§1) Samples of methicillin-resistant S. aureus (MRSA) were primed by adding 135 μl of samples containing S. aureus to rich media. The rich media included sub-inhibitory antibiotic (cefoxitin) to allow for specific enrichment and induction of MRSA. Samples were incubated in rich media for 1-2 hours. Following the priming of the samples, additional cefoxitin was added to the media and samples were incubated for an additional 2 hours. Staphylococcus aureus-specific bacteriophage NanoLuc Indicator phage was added to the samples and incubated for 2 hours. Lysis buffer and NANO-GLO® reagent were added. Following 5 minutes of incubation, measurements of bioluminescence were taken using a GLOMAX® 96 instrument. A signal/background ratio ≥750 RLU indicated positive detection of S. aureus. A signal/background ratio of <750 RLU indicated the sample was negative for S. aureus.

[2] = system: Staphylococcus aureus strain AR0463 (MRSA, CDC Panel)
Method: as §1

[3] = system: Staphylococcus aureus strain AR0465 (MRSA, CDC Panel)
Method: as §1

[4] = system: Staphylococcus aureus strain AR0467 (MRSA, CDC Panel)
Method: as §1

[5] = system: Staphylococcus aureus strain AR0472 (MRSA, CDC Panel)
Method: as §1

[6] = system: Staphylococcus aureus strain AR0475 (MRSA, CDC Panel)
Method: as §1

[7] = system: Staphylococcus aureus strain AR0478 (MRSA, CDC Panel)
Method: as §1

[8] = system: Staphylococcus aureus strain AR0480 (MRSA, CDC Panel)
Method: as §1

[9] = system: Staphylococcus aureus strain AR0481 (MRSA, CDC Panel)
Method: as §1

[10] = system: Staphylococcus aureus strain AR0482 (MRSA, CDC Panel)
Method: as §1

[11] = system: Staphylococcus aureus strain AR0483 (MRSA, CDC Panel)
Method: as §1

[12] = system: Staphylococcus aureus strain AR0484 (MSSA, CDC Panel)
Method: as §1

[13] = system: Staphylococcus aureus strain AR0485 (MSSA, CDC Panel)
Method: as §1

[14] = system: Staphylococcus aureus strain AR0486 (MSSA, CDC Panel)
Method: as §1

[15] = system: Staphylococcus aureus strain AR0489 (MSSA, CDC Panel)
Method: as §1

[16] = system: Staphylococcus aureus strain AR0491 (MSSA, CDC Panel)
Method: as §1

[17] = system: Staphylococcus aureus strain AR0492 (MSSA, CDC Panel)
Method: as §1

[18] = system: Staphylococcus aureus strain BAA-1720 (MRSA, ATCC); settings: detected CFU 16, cefoxitin 1.8 ug/mL
Method: as §1

[19] = system: Staphylococcus aureus strain BAA-1721 (MSSA, ATCC)
Method: as §1

[20] = system: Staphylococcus aureus strain BAA-2313 (MRSA, ATCC)
Method: as §1

[21] = system: Staphylococcus aureus strain BAA-42 (MRSA, ATCC)
Method: as §1

CO[C@@]1(NC(=O)Cc2cccs2)C(=O)N2C(C(=O)O)=C(COC(N)=O)CS[C@@H]21 [Cefoxitin, cefoxitin]
Cefoxitin Concentration 1 ug/mL (indicator phage luminescence signal) ([1]; detected CFU 25, cefoxitin 1 ug/mL): 3460 RLU
Cefoxitin Concentration 2 ug/mL (indicator phage luminescence signal) ([1]; detected CFU 25, cefoxitin 2 ug/mL): 1846 RLU
Cefoxitin Concentration 4 ug/mL (indicator phage luminescence signal) ([1]; detected CFU 25, cefoxitin 4 ug/mL): 910 RLU
Cefoxitin Concentration 1.8 ug/mL (indicator phage luminescence signal) ([2]; detected CFU 28, cefoxitin 1.8 ug/mL): 1941 RLU
Cefoxitin Concentration 1 ug/mL (indicator phage luminescence signal) ([2]; detected CFU 265, cefoxitin 1 ug/mL): 8987 RLU
Cefoxitin Concentration 2 ug/mL (indicator phage luminescence signal) ([2]; detected CFU 265, cefoxitin 2 ug/mL): 3377 RLU
Cefoxitin Concentration 4 ug/mL (indicator phage luminescence signal) ([2]; detected CFU 265, cefoxitin 4 ug/mL): 339 RLU
Cefoxitin Concentration 1 ug/mL (indicator phage luminescence signal) ([3]; detected CFU 101, cefoxitin 1 ug/mL): 8263 RLU
Cefoxitin Concentration 2 ug/mL (indicator phage luminescence signal) ([3]; detected CFU 101, cefoxitin 2 ug/mL): 4086 RLU
Cefoxitin Concentration 4 ug/mL (indicator phage luminescence signal) ([3]; detected CFU 101, cefoxitin 4 ug/mL): 3006 RLU
Cefoxitin Concentration 1 ug/mL (indicator phage luminescence signal) ([4]; detected CFU 171, cefoxitin 1 ug/mL): 9908 RLU
Cefoxitin Concentration 2 ug/mL (indicator phage luminescence signal) ([4]; detected CFU 171, cefoxitin 2 ug/mL): 6497 RLU
Cefoxitin Concentration 4 ug/mL (indicator phage luminescence signal) ([4]; detected CFU 171, cefoxitin 4 ug/mL): 4401 RLU
Cefoxitin Concentration 1.8 ug/mL (indicator phage luminescence signal) ([5]; detected CFU 14, cefoxitin 1.8 ug/mL): 2694 RLU
Cefoxitin Concentration 1 ug/mL (indicator phage luminescence signal) ([5]; detected CFU 142, cefoxitin 1 ug/mL): 72720 RLU
Cefoxitin Concentration 2 ug/mL (indicator phage luminescence signal) ([5]; detected CFU 142, cefoxitin 2 ug/mL): 19210 RLU
Cefoxitin Concentration 4 ug/mL (indicator phage luminescence signal) ([5]; detected CFU 142, cefoxitin 4 ug/mL): 240 RLU
Cefoxitin Concentration 1 ug/mL (indicator phage luminescence signal) ([6]; detected CFU 134, cefoxitin 1 ug/mL): 52460 RLU
Cefoxitin Concentration 2 ug/mL (indicator phage luminescence signal) ([6]; detected CFU 134, cefoxitin 2 ug/mL): 57660 RLU
Cefoxitin Concentration 4 ug/mL (indicator phage luminescence signal) ([6]; detected CFU 134, cefoxitin 4 ug/mL): 34040 RLU
Cefoxitin Concentration 1 ug/mL (indicator phage luminescence signal) ([7]; detected CFU 183, cefoxitin 1 ug/mL): 279700 RLU
Cefoxitin Concentration 2 ug/mL (indicator phage luminescence signal) ([7]; detected CFU 183, cefoxitin 2 ug/mL): 73090 RLU
Cefoxitin Concentration 4 ug/mL (indicator phage luminescence signal) ([7]; detected CFU 183, cefoxitin 4 ug/mL): 1519 RLU
Cefoxitin Concentration 1 ug/mL (indicator phage luminescence signal) ([8]; detected CFU 356, cefoxitin 1 ug/mL): 1038000 RLU
Cefoxitin Concentration 2 ug/mL (indicator phage luminescence signal) ([8]; detected CFU 356, cefoxitin 2 ug/mL): 430200 RLU
Cefoxitin Concentration 4 ug/mL (indicator phage luminescence signal) ([8]; detected CFU 356, cefoxitin 4 ug/mL): 127400 RLU
Cefoxitin Concentration 1 ug/mL (indicator phage luminescence signal) ([9]; detected CFU 82, cefoxitin 1 ug/mL): 150100 RLU
Cefoxitin Concentration 2 ug/mL (indicator phage luminescence signal) ([9]; detected CFU 82, cefoxitin 2 ug/mL): 109000 RLU
Cefoxitin Concentration 4 ug/mL (indicator phage luminescence signal) ([9]; detected CFU 82, cefoxitin 4 ug/mL): 27170 RLU
Cefoxitin Concentration 1 ug/mL (indicator phage luminescence signal) ([10]; detected CFU 75, cefoxitin 1 ug/mL): 6741 RLU
Cefoxitin Concentration 2 ug/mL (indicator phage luminescence signal) ([10]; detected CFU 75, cefoxitin 2 ug/mL): 2477 RLU
Cefoxitin Concentration 4 ug/mL (indicator phage luminescence signal) ([10]; detected CFU 75, cefoxitin 4 ug/mL): 204 RLU
Cefoxitin Concentration 1 ug/mL (indicator phage luminescence signal) ([11]; detected CFU 12, cefoxitin 1 ug/mL): 39250 RLU
Cefoxitin Concentration 2 ug/mL (indicator phage luminescence signal) ([11]; detected CFU 12, cefoxitin 2 ug/mL): 24390 RLU
Cefoxitin Concentration 4 ug/mL (indicator phage luminescence signal) ([11]; detected CFU 12, cefoxitin 4 ug/mL): 9081 RLU
Cefoxitin Concentration 1 ug/mL (indicator phage luminescence signal) ([12]; detected CFU 525, cefoxitin 1 ug/mL): 8875 RLU
Cefoxitin Concentration 2 ug/mL (indicator phage luminescence signal) ([12]; detected CFU 525, cefoxitin 2 ug/mL): 172 RLU
Cefoxitin Concentration 4 ug/mL (indicator phage luminescence signal) ([12]; detected CFU 525, cefoxitin 4 ug/mL): 182 RLU
Cefoxitin Concentration 1 ug/mL (indicator phage luminescence signal) ([13]; detected CFU 190, cefoxitin 1 ug/mL): 13930 RLU
Cefoxitin Concentration 2 ug/mL (indicator phage luminescence signal) ([13]; detected CFU 190, cefoxitin 2 ug/mL): 236 RLU
Cefoxitin Concentration 4 ug/mL (indicator phage luminescence signal) ([13]; detected CFU 190, cefoxitin 4 ug/mL): 301 RLU
Cefoxitin Concentration 1 ug/mL (indicator phage luminescence signal) ([14]; detected CFU 220, cefoxitin 1 ug/mL): 9217 RLU
Cefoxitin Concentration 4 ug/mL (indicator phage luminescence signal) ([14]; detected CFU 220, cefoxitin 4 ug/mL): 252 RLU
Cefoxitin Concentration 1 ug/mL (indicator phage luminescence signal) ([15]; detected CFU 144, cefoxitin 1 ug/mL): 30590 RLU
Cefoxitin Concentration 2 ug/mL (indicator phage luminescence signal) ([15]; detected CFU 144, cefoxitin 2 ug/mL): 188 RLU
Cefoxitin Concentration 4 ug/mL (indicator phage luminescence signal) ([15]; detected CFU 144, cefoxitin 4 ug/mL): 207 RLU
Cefoxitin Concentration 1 ug/mL (indicator phage luminescence signal) ([16]; detected CFU 217, cefoxitin 1 ug/mL): 40760 RLU
Cefoxitin Concentration 2 ug/mL (indicator phage luminescence signal) ([16]; detected CFU 217, cefoxitin 2 ug/mL): 215 RLU
Cefoxitin Concentration 4 ug/mL (indicator phage luminescence signal) ([16]; detected CFU 217, cefoxitin 4 ug/mL): 266 RLU
Cefoxitin Concentration 1 ug/mL (indicator phage luminescence signal) ([17]; detected CFU 178, cefoxitin 1 ug/mL): 13040 RLU
Cefoxitin Concentration 2 ug/mL (indicator phage luminescence signal) ([17]; detected CFU 178, cefoxitin 2 ug/mL): 194 RLU
Cefoxitin Concentration 1.8 ug/mL (indicator phage luminescence signal) [18]: 4034 RLU
Cefoxitin Concentration 1 ug/mL (indicator phage luminescence signal) ([19]; detected CFU 197, cefoxitin 1 ug/mL): 21900 RLU
Cefoxitin Concentration 2 ug/mL (indicator phage luminescence signal) ([19]; detected CFU 197, cefoxitin 2 ug/mL): 172 RLU
Cefoxitin Concentration 4 ug/mL (indicator phage luminescence signal) ([19]; detected CFU 197, cefoxitin 4 ug/mL): 164 RLU
Cefoxitin Concentration 1 ug/mL (indicator phage luminescence signal) ([20]; detected CFU 192, cefoxitin 1 ug/mL): 363300 RLU
Cefoxitin Concentration 2 ug/mL (indicator phage luminescence signal) ([20]; detected CFU 192, cefoxitin 2 ug/mL): 52440 RLU
Cefoxitin Concentration 4 ug/mL (indicator phage luminescence signal) ([20]; detected CFU 192, cefoxitin 4 ug/mL): 2409 RLU
Cefoxitin Concentration 1 ug/mL (indicator phage luminescence signal) ([21]; detected CFU 165, cefoxitin 1 ug/mL): 8634 RLU
Cefoxitin Concentration 2 ug/mL (indicator phage luminescence signal) ([21]; detected CFU 165, cefoxitin 2 ug/mL): 775 RLU
Cefoxitin Concentration 4 ug/mL (indicator phage luminescence signal) ([21]; detected CFU 165, cefoxitin 4 ug/mL): 240 RLU
